Reference: patent US6358984B1, “2,4-dioxopyrrolidine and 2,4-dioxotetrahydrofuran derivatives and medicines containing the same as the active ingredient” (Lead Chemical Co., Ltd., priority 1996, dated 2002)
Like-named read-outs stand apart in the source and are kept apart here.

Legend:
[1] = system: hypertension caused by angiotensin II; experiment: Inhibition effect in the hypertension caused by angiotensin II using rats; type: in vivo, rat; conditions: i. v., male SD rats, angiotensin II 100 ng/kg; for inhibition in vivo at 1 mg/kg: Rattus norvegicus, iv
Procedure: Male SD rats (age; 11 weeks; 310 to 330 g) Were used, and indwelling cannula were placed in the femoral aorta and the vena cava, under anesthesia with inactin. The arterial cannula was connected to a pressure transducer to record the blood pressure via a carrier amplifier (AP-601G Japan Photoelectronics) using a polygraph system (RM-6000 Japan Photoelectronics). Prior to tests using the test compounds, 100 ng/kg-equivalent angiotensin II (50 μl of serum solution from the rat) was administered using a regular-pulse cannula to check the hypertensive action. Then, 30 minutes later, a 1 mg/kg-equivalent test compound (50 μl of serum solution from the rat) was administered using the regular-pulse cannula, and similar administration of angiotensin II was performed 5 and 60 minutes later to check the corresponding hypertensive action. The hypertensive effect resulting from the administration of only angiotensin II was taken as a reference value of 100% to determine the antihypertensive rates of the test compounds.

aortae of guinea pigs = experiment: Inhibition of vascular contraction caused by angiotensin II using pieces of the aortae of guinea pigs; type: cell-based; conditions: guinea pig chest aorta, contraction induced by angiotensin II, read-out: Vascular contraction inhibition effect IC50
Procedure: Male Hartly guinea pigs (350 to 400 g) were contused on the head and sacrificed by allowing their blood to discharge from the arteria carotis communis. Immediately after death, the chest aorta was removed. A spiral sample of width 2 to 3 mm and length 20 to 25 mm was cut from the aorta, and was suspended in 4.5 ml of Krebs-Henseleit (K-H) solution (120 mM NaCl, 4.7 mM KCl, […], 1.2 mM KH2PO4, 2.5 mM CaCl2, 25 mM NaHCO3, and 10 mM glucose) in a Magnus vessel. The K-H solution in the Magnus vessel was maintained at 37° C., and a mixture gas of 95% O2 and 5% CO2 was continuously bubbled through the solution. First, 1 g of initial tension was applied to the sample, which was then left to stand rest for about 30 minutes, and 45 μl of 4M KCl solution was added to the solution to induce contraction. After contraction had stabilized, a washing operation was performed to replace the K-H solution. Then, after the sample was left to stand for 30 minutes, 45 μl of solvent DMSO was added to incubate the sample for 15 minutes, and 45 μl of angiotensin II solution (3×10^−8M) was added to induce contraction. This operation was repeated three times and 100% contraction was used as the average. Subsequently, the sample was stabilized by washing. Then, a 45 μl sample of each test compound prepared for each concentration (3×10^−5M to 10^−7M) using DMSO as a solvent was used to observe the inhibition effect of angiotensin II on vascular contraction by performing the same operation as described above. The contraction reaction was recorded on a recorder (RTA-1100, Japan Photoelectronics) via an equi-scale pressure transducer (TB-651T, Japan Photoelectronics). The angiotensin II inhibition effects of the test compounds were evaluated using the IC50 value.

angiotensin II receptor = target: T1, angiotensin II receptor (Oryctolagus cuniculus, UniProt P34976); experiment: Binding inhibition of 3H labeled angiotensin II to angiotensin II receptor membrane fraction; set-up: species or system rabbit; conditions: rabbit adrenal gland membrane, 3H labeled angiotensin II 10^-9M; read-out: Receptor binding inhibition effect IC50
T1 construct: fraction of angiotensin II receptor membrane ([…]) prepared from rabbit adrenal gland; from tissue; host or cells: rabbit adrenal gland membrane fraction
T1 sequence (P34976 1-359): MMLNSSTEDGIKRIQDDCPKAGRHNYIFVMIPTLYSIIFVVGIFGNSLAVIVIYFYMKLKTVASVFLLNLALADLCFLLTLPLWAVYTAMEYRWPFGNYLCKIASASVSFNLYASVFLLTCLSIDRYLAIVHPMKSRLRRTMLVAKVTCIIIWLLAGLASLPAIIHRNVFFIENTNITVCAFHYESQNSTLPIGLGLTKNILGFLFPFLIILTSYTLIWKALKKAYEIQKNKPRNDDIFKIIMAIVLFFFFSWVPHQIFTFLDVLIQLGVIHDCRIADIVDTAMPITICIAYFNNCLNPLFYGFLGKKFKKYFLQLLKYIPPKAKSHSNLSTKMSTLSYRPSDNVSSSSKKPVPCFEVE
Procedure: The method of Cox et. al (Biochemical Pharmacology 33, 4057-4064 (1984) was modified to conduct angiotensin II receptor binding inhibition experiments. The present compounds (10^−5M to 10^−9M) and ^3H labeled angiotensin II (10^−9M) were added to a fraction of angiotensin II receptor membrane ([…]) prepared from rabbit adrenal gland and were allowed to react in a 20 mM Tris HCl buffer (pH: 7.0) containing 120 mM NaCl, 5 mM EDTA, 0.1 mM PMSF, and 0.2% BSA at 30° C. for 20 minutes so that the final volume was 540 μl. Then, the reaction mixture was quickly passed through a filter (whatman GF/B), and the filter was then rinsed three times in 4 ml of the buffer cooled in ice. Then, the radioactivity of receptor binding ^3H labeled angiotensin II captured on the filter was measured using a liquid scintillation counter. The angiotensin II receptor binding inhibition activity of the present compounds was evaluated based on the concentration (IC 50) required to replace 50% of the total amount of specifically binding ^3H labeled angiotensin II.

[2] = 5 min, 5 minutes after administration, read-out: Inhibition effect in the hypertension by angiotensin II, 5 minutes after administration
[3] = 1 h, 60 minutes after administration, read-out: Inhibition effect in the hypertension by angiotensin II, 60 minutes after administration

Compound	Inhibition effect in the hypertension by angiotensin II, 5 minutes after administration ([1]; 1 mg/kg, 5 minutes after administration)	Inhibition effect in the hypertension by angiotensin II, 60 minutes after administration ([1]; 1 mg/kg, 60 minutes after administration)	IC50 (aortae of guinea pigs) [µM]	IC50 (angiotensin II receptor) [µM]	melting point [°C]	inhibition in vivo at 1 mg/kg [1, 2] [%]	inhibition in vivo at 1 mg/kg [1, 3] [%]	IC50 (aortae of guinea pigs; Cavia porcellus) [µM]
5-Butyl-3-(3-fluorophenyl)-1-[2′-[(4-hydroxy-2(5H)-furanone-5(Z)-ylidene)methyl]biphenyl-4-yl]methyl-1H-1,2,4-triazole [Compound 2h]	+ (30% > + ≧ 10%)	− (10% > −)	220	–	–	–	–	–
CCCc1nc(CCC)n(Cc2ccc(-c3ccccc3/C=C3\NC(=O)CC3=O)cc2)n1 [Compound 1a, 3,5-Dipropyl-1-[2′-[(2,4-dioxopyrrolidine-5(Z)-ylidene)methyl]biphenyl-4-yl]methyl-1H-1,2,4-triazole]	–	–	–	0.22	179 to 180	30 to 70	< 10	> 300
CC(C)c1nc(C(C)C)n(Cc2ccc(-c3ccccc3/C=C3\NC(=O)CC3=O)cc2)n1 [Compound 1b, 3,5-Diisopropyl-1-[2′-[(2,4-dioxopyrrolidine-5-(Z)-ylidene)methyl]biphenyl-4-yl]methyl-1H-1,2,4-triazole]	–	–	–	> 7	141 to 142	–	–	> 300
CCCCc1nc(C2CC2)nn1Cc1ccc(-c2ccccc2/C=C2\NC(=O)CC2=O)cc1 [Compound 1c, 5-Butyl-3-cyclopropyl-1-[2′-[(2,4-dioxopyrrolidine-5(Z)-ylidene)methyl]biphenyl-4-yl]methyl-1H-1,2,4-triazole]	–	–	–	2	166 to 168	–	–	> 300
CCCCc1nc(-c2ccccc2)nn1Cc1ccc(-c2ccccc2/C=C2\NC(=O)CC2=O)cc1 [Compound 1e, 5-Butyl-3-phenyl-1-[2′-[(2,4-dioxopyrrolidine-5(Z)-ylidene)methyl]biphenyl-4-yl]methyl-1H-1,2,4-triazole]	–	–	–	> 6.3	180 to 181	–	–	> 300
CCCCc1nc(CCc2ccccc2)nn1Cc1ccc(-c2ccccc2/C=C2\NC(=O)CC2=O)cc1 [Compound 1f, 5-Butyl-3-(2-phenylethyl)-1-[2′-[(2,4-dioxopyrrolidine-5(Z)-ylidene)methyl]biphenyl-4-yl]methyl-1H-1,2,4-triazole]	–	–	–	0.15	188 to 189	30 to 70	30 to 70	87.9
CCCCc1nc(-c2ccc(F)cc2)nn1Cc1ccc(-c2ccccc2/C=C2\NC(=O)CC2=O)cc1 [Compound 1g, 5-Butyl-3-(4-fluorophenyl)-1-[2′-[(2,4-dioxopyrrolidine-5(Z)-ylidene)methyl]biphenyl-4-yl]methyl-1H-1,2,4-triazole]	–	–	–	> 6.1	188 to 190	–	–	> 300
CCCCc1nc(-c2ccccc2F)nn1Cc1ccc(-c2ccccc2/C=C2\NC(=O)CC2=O)cc1 [Compound 1h, 5-Butyl-3-(2-fluorophenyl)-1-[2′-[(2,4-dioxopyrrolidine-5(Z)-ylidene)methyl]biphenyl-4-yl]methyl-1H-1,2,4-triazole]	–	–	–	4.5	169 to 170	–	–	> 300
CCCCc1nc(-c2ccncc2)nn1Cc1ccc(-c2ccccc2/C=C2\NC(=O)CC2=O)cc1 [Compound 1i, 5-Butyl-3-(pyridine-4-yl)-1-[2′-[(2,4-dioxopyrrolidine-5(Z)-ylidene)methyl]biphenyl-4-yl]methyl-1H-1,2,4-triazole]	–	–	–	> 6.3	144 to 145	–	–	> 300
CCCCc1nc(-c2ccco2)nn1Cc1ccc(-c2ccccc2/C=C2\NC(=O)CC2=O)cc1 [Compound 1j, 5-Butyl-3-(furan-2-yl)-1-[2′-[(2,4-dioxopyrrolidine-5(Z)-ylidene)methyl]biphenyl-4-yl]methyl-1H-1,2,4-triazole]	–	–	–	2.2	169 to 170	–	–	> 300
CCCCc1nc(-c2cccs2)nn1Cc1ccc(-c2ccccc2/C=C2\NC(=O)CC2=O)cc1 [Compound 1k, 5-Butyl-3-(thiophene-2-yl)-1-[2′-[(2,4-dioxopyrrolidine-5(Z)-ylidene)methyl]biphenyl-4-yl]methyl-1H-1,2,4-triazole]	–	–	–	4.2	186 to 187	–	–	> 300
CCCc1nc(CCC)n(Cc2ccc(-c3ccccc3/C=C3\OC(=O)C=C3O)cc2)n1 [Compound 2a, 3,5-Dipropyl-1-[2′-[(4-hydroxy-2(5H)-furanone-5(Z)-ylidene)methyl]biphenyl-4-yl]methyl-1H-1,2,4-triazole]	–	–	–	0.11	160 to 161	30 to 70	< 10	16.9
CC(C)c1nc(C(C)C)n(Cc2ccc(-c3ccccc3/C=C3\OC(=O)C=C3O)cc2)n1 [Compound 2b, 3,5-Diisopropyl-1-[2′-[(4-hydroxy-2(5H)-furanone-5(Z)-ylidene)methyl]biphenyl-4-yl]methyl-1H-1,2,4-triazole]	–	–	–	0.93	191 to 193	–	–	> 300
CCCCc1nc(-c2ccc(F)cc2)nn1Cc1ccc(-c2ccccc2/C=C2\OC(=O)C=C2O)cc1 [Compound 2g, 5-Butyl-3-(4-fluorophenyl)-1-[2′-[(4-hydroxy-2(5H)-furanone-5(Z)-ylidene)methyl]biphenyl-4-yl]methyl-1H-1,2,4-triazole]	–	–	–	0.69	175 to 176	–	–	> 300
CCCCc1nc(-c2cccc(F)c2)nn1Cc1ccc(-c2ccccc2/C=C2\OC(=O)C=C2O)cc1 [Compound 2h, 5-Butyl-3-(3-fluorophenyl)-1-[2′-[(4-hydroxy-2(5H)-furanone-5(Z)-ylidene)methyl]biphenyl-4-yl]methyl-1H-1,2,4-triazole]	–	–	–	–	184 to 185	–	–	–
CCCCc1nnc(CCCC)n1Cc1ccc(-c2ccccc2/C=C2\NC(=O)CC2=O)cc1 [Compound 19a]	–	–	–	8	185 to 186	–	–	> 300
CCCCc1nnc(CCCC)n1Cc1ccc(-c2ccccc2/C=C2\OC(=O)C=C2O)cc1 [Compound 19b, 3,5-Dibutyl-1-[2′-[(4-hydroxy-2(5H)-furanone-5(Z)-ylidene)-methyl]biphenyl-4-yl]methyl-4H-1,2,4-triazole]	–	–	–	0.68	–	–	–	> 300
